Source: publication PMC5803267, “A small molecule inhibitor of Rheb selectively targets mTORC1 signaling” (Nature Communications, 2018)
Entries after “also recorded” stand apart in the source; their conditions may differ.

How the values were obtained:
Rap1 = Rap1 in vitro activity assay (GST-RalGDS-RBD pulldown from lysates); type: biochemical, human; settings: lysates loaded with GDP or GTPγS, compound 30 min
Experimental: (§1) MCF-7 cells were serum-starved for 16 h and treated with compound for 90 min before cell lysis and Western blot analysis. For insulin-stimulated cells, 100 nM insulin was added 30 min before cell lysis. For EGF-stimulated cells, 100 ng mL^−1 EGF was added 10 min before cell lysis. c Rap1 activity was detected in lysates loaded in vitro with either GDP or GTPγS and treated with NR1 at the indicated concentrations. This was followed by a subsequent pulldown of GST-RalGDS-RBD. Bound Rap1 was detected by Western blot. d Evaluation of NR1 in a LAM patient-derived cell line (TRI102) under replete and serum-starved conditions. For replete conditions, TRI102 cells were treated for 90 min with compound in DMEM + 10% FBS. For serum-starved conditions, TRI102 cells were serum-starved 16 h and then treated for 90 min with compound prior to cell lysis and Western blot analysis. e HEK293 cells co-transfected with the indicated mTOR constructs and HA-GST-S6K1 were starved of amino acids or treated with NR1. To assess mTORC1 activity, an HA IP was performed and Western blots probed for ^T389pS6K1. f Chronic treatment of PC3 cells with NR1 to evaluate the inhibition of mTORC1 (using ^T389pS6K1) versus mTORC2 (using ^S473pAKT). PC3 cells were treated with compound under replete conditions for 24 h prior to cell lysis and Western blot analysis. […]

[1] = tested on: mTORC1 activity (S240/244pS6) in skeletal muscle; assay: PD study: feeding-induced mTORC1 activation in gastrocnemius muscle; type: in vivo, mouse; settings: mice fasted 16 h, 30 mg kg^−1 IP, re-fed 2 h
Experimental: The selective inhibition of mTORC1 activation by NR1 in vitro and in cell-based systems prompted us to evaluate the effect of this compound on mTORC1 activity in vivo. […] In particular, the plasma concentration of NR1 was sustained over 5 µM for 2 h after IP administration of a 30 mg kg^−1 dose (Supplementary Fig. 10). We therefore carried out a pharmacodynamic (PD) study to evaluate the efficacy of NR1 at inhibiting mTORC1 signaling in vivo. In this experiment, mice were starved overnight to achieve a low basal level of mTORC1 activation (pre-dose). After a 16 h fast, the animals were treated with either vehicle or 30 mg kg^−1 NR1 and allowed to re-feed for 2 h before sacrifice and tissue collection. mTORC1 activity was measured by quantification of ^S240/244pS6 by Western blot analysis with a specific antibody. We chose kidney and gastrocnemius muscle as target tissues due to the relevance of mTORC1 in renal cell carcinoma[51] and angiomyolipomas in TSC and LAM[12] and for its important role in the regulation of protein synthesis and muscle mass[52]. The results are summarized in Fig. 6 for skeletal muscle and Supplementary Fig. 11 for kidney.
Fig. 6 NR1 inhibits feeding-induced mTORC1 activation in skeletal muscle. […] After 2 h, gastrocnemius muscle was collected, and ^S240/244pS6 levels were measured by Western blot and quantified. […]

[2] = tested on: T202/Y204pERK1/2 (Ras/ERK pathway) in MCF-7 cells; assay: EGF-induced T202/Y204pERK1/2 Western blot in MCF-7 cells; type: cell-based, human; settings: MCF-7 serum-starved 16 h, compound 90 min, 100 ng mL^−1 EGF
Experimental: as §1

CN(C)C(=O)c1ccc(Cn2c(C(=O)O)cc3c(Br)cc(Sc4ccc(Cl)c(Cl)c4)cc32)cc1 [NR1, 4-bromo-6-(3,4-dichlorophenylthio)-1-(4-(dimethylcarbamoyl)benzyl)-1H-indole-2-carboxylic acid]
effect on activity of Rap1 in vitro (Rap1): no impact on the activity of Rap1; also recorded: did not affect the activity of Rap1
T37/46 4E-BP1 in skeletal muscle [1]: clear band shift
mTORC1 activity (S240/244pS6) in skeletal muscle versus vehicle [1]: significantly reduced mTORC1 activity
EGF-induced phosphorylation of T202/Y204pERK1/2 [2]: did not inhibit
